The source made the active and inactive calls. The rule behind the calls is not given here.
What was measured:
Vero C1008 [1] = experiment: (§1) Cytotoxicity of compound against Vero E6 cells by MTT assay.; details: chlorocebus sabaeus, vero c1008
[2] = as §1; details: chlorocebus sabaeus, Vero E6 cells
Vero C1008 [3] = experiment: AUC (cytotoxicity %) of compound against Vero E6 cells by MTT assay.; type: toxicity, cell-based; details: chlorocebus sabaeus
SARS-CoV-2 [4] = details: Chlorocebus sabaeus; Vero C1008
SARS-CoV-2 [5] = experiment: microbe, parasite or virus in culture; type: functional, organism-based, Chlorocebus sabaeus; details: Severe acute respiratory syndrome coronavirus 2, Vero C1008, 48 h
SARS-CoV-2 [6] = experiment: IC90 for antiviral activity against SARS-CoV-2 in the Vero E6 cell line by measuring infectious viral titer of supernatent from compound-treated Vero E6 cells by Median Tissue Culture Infectious Dose (TCID)50 by the method of Reed and Muench; type: functional, Chlorocebus sabaeus; details: Severe acute respiratory syndrome coronavirus 2, Vero C1008
[7] = target: Sigma intracellular receptor 2 (Homo sapiens, UniProt Q5BJF2); experiment: Displacement of [3H]-DTG from the Sigma2 receptor
Sequence of Sigma intracellular receptor 2 (Q5BJF2 whole entry): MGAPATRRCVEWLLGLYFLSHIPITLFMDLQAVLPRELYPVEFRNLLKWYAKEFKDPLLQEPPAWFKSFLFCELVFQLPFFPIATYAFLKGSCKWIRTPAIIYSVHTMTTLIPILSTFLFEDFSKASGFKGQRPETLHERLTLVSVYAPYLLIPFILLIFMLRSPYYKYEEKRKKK

[8] = target: Sigma non-opioid intracellular receptor 1 (Homo sapiens, UniProt Q99720)
Sequence of Sigma non-opioid intracellular receptor 1 (Q99720 whole entry): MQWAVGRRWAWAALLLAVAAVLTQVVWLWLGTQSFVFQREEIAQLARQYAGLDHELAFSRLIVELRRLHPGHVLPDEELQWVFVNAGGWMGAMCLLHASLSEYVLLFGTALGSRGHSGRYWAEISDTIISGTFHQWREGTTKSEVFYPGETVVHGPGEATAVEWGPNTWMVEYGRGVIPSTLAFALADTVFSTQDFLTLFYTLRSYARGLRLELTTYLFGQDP
Description: Displacement of [3H]-pentazocin from the Sigma1 receptor

[9] = target: T1, Muscarinic acetylcholine receptor M4 (Homo sapiens, UniProt P08173); experiment: Activity of compound against Muscarinic acetylcholine receptor M4 (CHRM4) by displacement of 3H-QNB
T1 sequence (P08173 whole entry): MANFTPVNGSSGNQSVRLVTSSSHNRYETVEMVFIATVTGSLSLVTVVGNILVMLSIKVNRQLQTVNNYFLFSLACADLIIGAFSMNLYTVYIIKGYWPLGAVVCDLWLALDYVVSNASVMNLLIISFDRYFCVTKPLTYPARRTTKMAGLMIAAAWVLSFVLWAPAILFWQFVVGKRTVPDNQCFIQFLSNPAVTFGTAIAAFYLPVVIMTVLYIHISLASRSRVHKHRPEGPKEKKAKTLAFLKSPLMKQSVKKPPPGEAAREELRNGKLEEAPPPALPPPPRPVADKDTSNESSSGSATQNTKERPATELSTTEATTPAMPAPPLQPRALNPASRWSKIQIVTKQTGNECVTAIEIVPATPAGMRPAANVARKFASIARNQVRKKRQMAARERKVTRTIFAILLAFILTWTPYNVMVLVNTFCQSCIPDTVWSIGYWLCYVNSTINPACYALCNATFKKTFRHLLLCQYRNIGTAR

[10] = target: T2, Muscarinic acetylcholine receptor M5 (Homo sapiens, UniProt P08912); experiment: Activity of compound against Muscarinic acetylcholine receptor M5 (CHRM5) by displacement of 3H-QNB
T2 sequence (P08912 whole entry): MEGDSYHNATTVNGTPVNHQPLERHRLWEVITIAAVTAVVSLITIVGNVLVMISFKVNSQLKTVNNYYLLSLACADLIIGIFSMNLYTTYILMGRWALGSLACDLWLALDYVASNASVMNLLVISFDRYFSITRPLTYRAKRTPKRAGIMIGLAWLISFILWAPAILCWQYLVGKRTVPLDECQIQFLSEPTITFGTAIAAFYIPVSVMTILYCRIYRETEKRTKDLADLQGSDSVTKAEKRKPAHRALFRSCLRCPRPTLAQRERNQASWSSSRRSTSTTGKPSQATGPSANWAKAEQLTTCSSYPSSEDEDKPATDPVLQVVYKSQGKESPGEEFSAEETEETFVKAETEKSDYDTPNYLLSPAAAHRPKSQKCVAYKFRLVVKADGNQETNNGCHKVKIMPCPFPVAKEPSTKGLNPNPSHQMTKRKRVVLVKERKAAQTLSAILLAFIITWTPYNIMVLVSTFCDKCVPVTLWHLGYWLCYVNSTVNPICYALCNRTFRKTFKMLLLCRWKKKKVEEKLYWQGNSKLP

| Compound | CC50 [2] | AUC cytotoxicity (Vero C1008 [3]) | AUC (SARS-CoV-2 [4]) | also measured |
| --- | --- | --- | --- | --- |
| c1ccc(CNc2nc(NCc3ccccc3)c3ccccc3n2)cc1 | – | – | – | pCC50 (Vero C1008 [1]): 5.19 |
| Cc1sc2c(c1C)C(c1ccc(Cl)cc1)=N[C@@H](CC(=O)OC(C)(C)C)c1nnc(C)n1-2 | ~66.8 nM | – | – | – |
| Cc1cc(OCCN2CCOCC2)nn1-c1ccc2ccccc2c1 | ~7620 nM (inactive) | – | – | – |
| COC(=O)C1(c2ccc(C)cc2)CC1CN1CCC(O)(c2ccccc2)CC1 (stereo not given) | ~4000 nM (inactive) | – | – | – |
| O=C(O)/C(Cc1ccccc1[N+](=O)[O-])=N\Nc1nc(-c2ccc(Cl)c(Cl)c2)cs1 | – | – | – | pCC50 (Vero C1008 [1]): 4.32 |
| COc1cccc2c(NCc3ccccc3)nc(-n3c(N)nc4ccccc43)nc12 | – | 175.5 | 223 | pCC50 (Vero C1008 [1]): 2.936 |
| COc1ccc(-c2sc(NC(=O)C(C)(C)C)nc2C)cc1S(=O)(=O)Nc1ccc(O)cc1 | – | – | – | pCC50 (Vero C1008 [1]): 5.25 |
| O=C(c1ccc(-n2nnc3cccnc32)cc1)N(c1ncccc1Cl)[C@@H]1CCCNC1 | – | – | – | IC50 (SARS-CoV-2 [5]): 7590 nM; pCC50 (Vero C1008 [1]): 5.61 |
| C[C@@H](C1CCCCC1)n1c(-c2cc3c(cc2Br)OCO3)nc2cc(C(=O)Nc3ccc(C#N)cc3)ccc21 | ~102 nM (inactive) | 261.6 | 227 | – |
| Cc1ncsc1-c1ccc(CNC(=O)[C@@H]2C[C@@H](O)CN2C(=O)[C@@H](NC(=O)COCCOCCOCCNC(=O)C[C@@H]2N=C(c3ccc(Cl)cc3)c3c(sc(C)c3C)-n3c(C)nnc32)C(C)(C)C)cc1 | 300 nM | – | – | – |
| COc1cccc2c1CCCC2CCCN1CCN(C2CCCCC2)CC1 (stereo not given) | – | – | – | IC90 (SARS-CoV-2 [6]): 278 nM |
| COc1cc(OC)c2c(=O)[nH]c(-c3cc(C)c(OCCO)c(C)c3)nc2c1 [APABETALONE] | ~207 nM (inactive) | 281.9 | 293 | – |
| O=c1[nH]c(=O)n([C@H]2C[C@H](O)[C@@H](CO)O2)cc1/C=C/Br [BRIVUDINE] | – | 244.3 | 255 | – |
| CN(C)C(=O)COC(=O)Cc1ccc(OC(=O)c2ccc(NC(=N)N)cc2)cc1 [CAMOSTAT] | ~3630 nM (inactive) | 276.3 | 251 | – |
| C[C@H](CS)C(=O)N1CCC[C@H]1C(=O)O [CAPTOPRIL] | ~1230 nM (inactive) | 271.9 | 276 | – |
| Cc1cc2c(C(N)=O)cccc2n1-c1nc2c(c(NCc3ccccc3)n1)COCC2 [CB-5083] | – | – | 280 | – |
| CCN(CC)CCCC(C)Nc1ccnc2cc(Cl)ccc12 (stereo not given) [CHLOROQUINE] | – | – | – | Ki [7]: 501 nM; Ki [8]: 79.4 nM; Ki [9]: 5750 nM; Ki [10]: 21900 nM |
| Clc1ccc(C(OCCN2CCCCC2)c2ccccc2)cc1 (stereo not given) [CLOPERASTINE] | ~661 nM (active) | – | – | – |
| COc1cccc2c1C(=O)c1c(O)c3c(c(O)c1C2=O)C[C@@](O)(C(C)=O)C[C@@H]3O[C@H]1C[C@H](N)[C@H](O)[C@H](C)O1 [DAUNORUBICIN] | – | – | – | IC50 (SARS-CoV-2 [5]): ~214 nM |
| COc1ccc2c(c1)[C@]13CCCC[C@@H]1[C@H](C2)N(C)CC3 [DEXTROMETHORPHAN] | ~871 nM | 296.5 | 271 | – |
| NCCCC[C@H](N[C@@H](CCc1ccccc1)C(=O)O)C(=O)N1CCC[C@H]1C(=O)O [LISINOPRIL ANHYDROUS] | ~8320 nM (inactive) | – | – | – |

| Compound | CC50 [2] | AUC cytotoxicity (Vero C1008 [3]) | AUC (SARS-CoV-2 [4]) | also measured |
| --- | --- | --- | --- | --- |
| CC[C@H](C)C(=O)O[C@H]1C[C@@H](C)C=C2C=C[C@H](C)[C@H](CC[C@@H]3C[C@@H](O)CC(=O)O3)[C@H]21 [LOVASTATIN] | – | – | – | pCC50 (Vero C1008 [1]): 5.4 |
| CCNC(=O)c1noc(-c2cc(C(C)C)c(O)cc2O)c1-c1ccc(CN2CCOCC2)cc1 [LUMINESPIB] | ~67.6 nM | 161.6 | 172 | – |
| CN(C)C(=N)NC(=N)N [METFORMIN] | – | – | 293 | IC50 (SARS-CoV-2 [5]): ~2860 nM |
| N=C(N)Nc1ccc(C(=O)Oc2ccc3cc(C(=N)N)ccc3c2)cc1 [NAFAMOSTAT] | – | – | 302 | IC50 (SARS-CoV-2 [5]): ~39800 nM (inactive) |
| CC(=O)Oc1ccccc1C(=O)Nc1ncc([N+](=O)[O-])s1 [NITAZOXANIDE] | – | – | – | IC50 (SARS-CoV-2 [5]): 2820 nM |
| Cc1cc2c(s1)Nc1ccccc1N=C2N1CCN(C)CC1 [OLANZAPINE] | ~2880 nM (inactive) | – | – | – |
| CC(C)c1cc(C(=O)N2Cc3ccc(CN4CCN(C)CC4)cc3C2)c(O)cc1O [ONALESPIB] | ~1.66 nM | 170.7 | 177 | – |
| Cc1noc2c1-c1ccccc1C(c1ccc(Cl)cc1)=N[C@H]2CC(N)=O [PELABRESIB] | ~42.7 nM (inactive) | 193.2 | 249 | – |
| CC(C)CC(=O)N[C@H](C(=O)N[C@H](C(=O)N[C@@H](CC(C)C)[C@@H](O)CC(=O)N[C@@H](C)C(=O)N[C@@H](CC(C)C)[C@@H](O)CC(=O)O)C(C)C)C(C)C [PEPSTATIN] | ~19.5 nM (inactive) | 262.3 | 313 | – |
| O=c1[nH]c2ccccc2n1C1CCN(CCCC(c2ccc(F)cc2)c2ccc(F)cc2)CC1 [PIMOZIDE] | – | – | – | pCC50 (Vero C1008 [1]): 6.13 |
| CCc1ccc(CCOc2ccc(CC3SC(=O)NC3=O)cc2)nc1 (stereo not given) [PIOGLITAZONE] | ~3630 nM (inactive) | 236.6 | 272 | – |
| NC(=O)c1ncn([C@@H]2O[C@H](CO)[C@@H](O)[C@H]2O)n1 [RIBAVIRIN] | ~21700 nM (inactive) | – | – | – |
| C[C@@H]1CN(CCCn2c3ccccc3c3ccccc32)C[C@H](C)N1 [RIMCAZOLE] | – | 215.6 | – | pCC50 (Vero C1008 [1]): 2.24 |
| N#CC[C@H](C1CCCC1)n1cc(-c2ncnc3[nH]ccc23)cn1 [RUXOLITINIB] | – | 248.3 | 316 | – |
| CC(C)n1nc(-c2ccc3oc(N)nc3c2)c2c(N)ncnc21 [SAPANISERTIB] | 1.24 nM | 102 | 329 | – |
| O=C(O)c1ccc2c(c1)nc(Nc1cccc(Cl)c1)c1ccncc12 [SILMITASERTIB] | – | 225.5 | 216 | pCC50 (Vero C1008 [1]): 5.5 |
| CO[C@H]1C[C@@H]2CC[C@@H](C)[C@@](O)(O2)C(=O)C(=O)N2CCCC[C@H]2C(=O)O[C@H]([C@H](C)C[C@@H]2CC[C@@H](O)[C@H](OC)C2)CC(=O)[C@H](C)/C=C(\C)[C@@H](O)[C@@H](OC)C(=O)[C@H](C)C[C@H](C)/C=C/C=C/C=C/1C [SIROLIMUS] | ~0.479 nM | – | – | – |
| Cc1cc(Nc2cc(N)ncn2)c(=O)n2c1C(=O)NC21CCCCC1 [TOMIVOSERTIB] | – | 245.9 | 231 | pCC50 (Vero C1008 [1]): 5.26 |
| CCCC(CCC)C(=O)O [VALPROIC ACID] | – | 235.1 | 300 | – |
| COc1cc2c(c(OC)n1)[C@]1(O)[C@H](O)[C@H](CN(C)C)[C@@H](c3ccccc3)[C@]1(c1ccc(C#N)cc1)O2 [ZOTATIFIN] | 5.12 nM (active) | – | – | IC90 (SARS-CoV-2 [6]): 37 nM |

Reference: ChEMBL document CHEMBL4303773 (Nature, 2020)
